The nature of data set [1]: Measurement of Log P values by HPLC on reversed phase columns (EEC directive 79/831 Annex V.A8). In kind it is physicochemical. The following applies: LogP. The method in brief: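 Calibration used straight-chain alkan-2-ones (3 to 16 carbons) of known Log P, interpolating linearly between retention times. Values come from reversed-phase LC-UV (EEC 79/831 Annex V.A8), 10% to 95% acetonitrile gradient against 0.1% formic acid, 0.001 molar ammonium acetate, or 0.1% phosphoric acid.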

Data set [2] concerns Alternaria alternata. The data set can be described thus: Alternaria alternata in vitro cell test. In kind it is cell-based. Particulars: 120 h, 20 ppm of active ingredient, 5 days incubation, liquid culture, spectrometric measurement of mycelium growth, read-out: efficacy (inhibition of fungal growth). The protocol: (§1) • Solvent: DMSO • Culture medium: 14.6 g anhydrous D-glucose (VWR), 7.1 g Mycological Peptone (Oxoid), 1.4 g granulated Yeast Extract (Merck), QSP 1 liter • Inoculum: spore suspension Fungicides were solubilized in DMSO and the solution used to prepare the required range of concentrations. […] A spore suspension of A. alternata was prepared and diluted to the desired spore density. Fungicides were evaluated for their ability to inhibit spore germination and mycelium growth in liquid culture assay. The compounds were added in the desired concentration to the culture medium with spores. After 5 days incubation, fungi-toxicity of compounds was determined by spectrometric measurement of mycelium growth. Inhibition of fungal growth was determined by comparing the absorbance values in wells containing the fungicides with the absorbance in control wells without fungicides.

Data set [3] deals with Pyricularia oryzae. The data set can be described thus: microbe, parasite or virus in culture. Type of data set: cell-based. Particulars: 120 h, read-out: efficacy (inhibition of fungal growth).
Data set [4] deals with Pyrenophora teres. Kind of data set: Pyrenophora teres in vitro cell test. Type of data set: cell-based. Particulars: 144 h, 20 ppm of active ingredient, 6 days incubation, liquid culture, spectrometric measurement of mycelium growth, read-out: efficacy (inhibition of fungal growth). The protocol:
as §1, with “P. teres” for “A. alternata”, “6” for “5”

For data set [5], the system named is Septoria tritici. Kind of data set: Septoria tritici in vitro cell test. In kind it is cell-based. The following applies: Zymoseptoria tritici, 168 h; 20 ppm of active ingredient; 7 days incubation; liquid culture, spectrometric measurement of mycelium growth; read-out: efficacy (inhibition of fungal growth). How it is done: • Solvent: DMSO • Culture medium: 1 g KH2PO4 (VWR), 1 g K2HPO4 (VWR), 0.5 g Urea (VWR), 3 g KNO3 (Prolabo), 10 g saccharose (VWR), 0.5 g MgSO4, 7H2O (Sigma), 0.07 g CaCl2, 2H2O (Prolabo), 0.2 mg MnSO4, H2O (Sigma), 0.6 mg CuSO4, 5H2O (Sigma), 7.9 mg ZnSO4, 7H2O (Sigma), 0.1 mg H3BO3 (Merck), 0.14 mg NaMoO4, 2H2O (Sigma), 2 mg thiamine (Sigma), 0.1 mg biotine (VWR), 4 mg FeSO4, 7H2O (Sigma), QSP 1 liter • Inoculum: spore suspension Fungicides were solubilized in DMSO and the solution used to prepare the required range of concentrations. […] A spore suspension of S. tritici was prepared and diluted to the desired spore density. Fungicides were evaluated for their ability to inhibit spore germination and mycelium growth in liquid culture assay. The compounds were added in the desired concentration to the culture medium with spores. […] Inhibition of fungal growth was determined by comparing the absorbance values in wells containing the fungicides with the absorbance in control wells without fungicides.

For data set [6], the system named is Sphaerotheca fuliginea. The data set can be described thus: In vivo preventive test on Sphaerotheca fuliginea (powdery mildew on cucurbits). Particulars: Podosphaera fuliginea, 192 h; 500 ppm of active ingredient; preventive spray on young gherkin plants; evaluated 8 days after inoculation; read-out: efficacy. How it is done: The active ingredients were made soluble and homogenized in a mixture of Dimethyl sulfoxide/Acetone//Tween®80 and then diluted in water to the desired concentration. The young plants of gherkin were treated by spraying the active ingredient prepared as described above. Control plants were treated only with an aqueous solution of Acetone/Dimethyl sulfoxide/Tween® 80. After 24 hours, the plants were contaminated by spraying the leaves with an aqueous suspension of Sphaerotheca fuliginea spores.

The test system of data set [7] is Colletotrichum lindemuthianum. Kind of data set: In vivo preventive test on Colletotrichum lindemuthianum (leaf spot on bean). Particulars: 168 h, 500 ppm of active ingredient, preventive spray on young bean plants, evaluated 7 days after inoculation, read-out: efficacy. How it is done: The active ingredients were made soluble and homogenized in a mixture of Dimethyl sulfoxide/Acetone//Tween®80 and then diluted in water to the desired concentration. The young plants of bean were treated by spraying the active ingredient prepared as described above. Control plants were treated only with an aqueous solution of Acetone/Dimethyl sulfoxide/Tween® 80. After 24 hours, the plants were contaminated by spraying the leaves with an aqueous suspension of Colletotrichum lindemuthianum spores.

This passage reports chromatographic logP, inhibition and pest or weed control results from patent US12565489B2, “Heterocyclyl pyrimidines and triazines as novel fungicides” (Bayer Aktiengesellschaft, priority 2020, dated 2026).

As usually defined, the chromatographic logP is a lipophilicity value derived from retention on a column. High values mean a more lipophilic compound, low ones a more hydrophilic compound. As usually defined, the inhibition is the share of the control response that was lost under treatment.

The compound `Cc1ccc(CC2CON=C(c3nc(C)ncc3Oc3cccc(C(F)(F)F)c3)N2)c(C)c1` (racemic) [Compound I-002, (5RS)-5-(2,4-dimethylbenzyl)-3-{2-methyl-5-[3-(trifluoro-methyl)phenoxy]pyrimidin-4-yl}-5,6-dihydro-4H-1,2,4-oxadiazine] had a chromatographic logP in data set [1] of 4.33. The inhibition at 20 ppm in data set [2], in data set [3], in data set [4] and in data set [5] was 90 to 100% each time. For the same compound, the pest or weed control at 500 ppm in data set [6] and in data set [7] was 90 to 100% each time.

Take `Cc1ccc(C[C@@H]2CON=C(c3nc(C)ncc3Oc3cccc(C4CC4)c3F)N2)c(Cl)c1` (racemic) [Compound I-008]: in data set [1], the chromatographic logP was determined as 4.49. Moreover, the inhibition at 20 ppm in data set [2], in data set [3], in data set [4] and in data set [5] was 90 to 100% in each case. In addition, the pest or weed control at 500 ppm in data set [6] and in data set [7] was 90 to 100% each time.

In the case of `Cc1ccc(C[C@@H]2CON=C(c3nc(C)ncc3Oc3cccc(Br)c3)N2)c(C)c1` (racemic) [Compound I-009], the chromatographic logP in data set [1] came to 4.44. In addition, the inhibition at 20 ppm in data set [2], in data set [3], in data set [4] and in data set [5] was 90 to 100% throughout. The pest or weed control at 500 ppm in data set [6] and in data set [7] was 90 to 100% in each case.

In data set [1], `Cc1ccc(C[C@@H]2CON=C(c3nc(C)ncc3Oc3cccc(C4CC4)c3F)N2)c(C)c1` (racemic) [Compound I-016] had a chromatographic logP of 4.41. Besides, the inhibition at 20 ppm in data set [2], in data set [3], in data set [4] and in data set [5] was 90 to 100% in each case. The pest or weed control at 500 ppm in data set [6] and in data set [7] was 90 to 100% each time.

In data set [1], `Cc1ncc(Oc2cccc(C(F)(F)F)c2)c(C2=NOC[C@@H](Cc3ccc(SC(F)(F)F)cc3)N2)n1` (racemic) [Compound I-030] gave a chromatographic logP of 4.62. The inhibition at 20 ppm in data set [2] was in the range of 80 to 89%; in data set [4], 90 to 100%; in data set [5], 70 to 79%. The results for the pest or weed control at 500 ppm in data set [6] and in data set [7] were 90 to 100% and 70 to 79%, respectively.

In the case of `Cc1ccc(C[C@@H]2CON=C(c3nc(C)ncc3Oc3cccc(C4CC4)c3)N2)c(C)c1` (racemic) [Compound I-024], in data set [1], the chromatographic logP is 4.55. Further, the inhibition at 20 ppm in data set [2], in data set [3], in data set [4] and in data set [5] was 90 to 100% in each case. In addition, the pest or weed control at 500 ppm in data set [6] and in data set [7] was 90 to 100% in each case.

`Cc1ccc(C[C@@H]2CON=C(c3nc(C)ncc3Oc3cccc(C(F)(F)F)c3)N2)c(Cl)c1` (racemic) [Compound I-013]: the chromatographic logP in data set [1] was determined as 4.47. Moreover, the inhibition at 20 ppm in data set [2], in data set [4] and in data set [5] was 90 to 100% in each case. The pest or weed control at 500 ppm in data set [6] and in data set [7] was 90 to 100% in each case.

As for `C#Cc1ccc(CC2CON=C(c3nc(C)ncc3Oc3cccc(C(F)(F)F)c3)N2)c(C)c1` (racemic) [Compound I-026, (5RS)-5-[(4-ethynyl-2-methyl-phenyl)methyl]-3-[2-methyl-5-[3-(trifluoromethyl)phenoxy]pyrimidin-4-yl]-5,6-dihydro-4H-1,2,4-oxadiazine], the chromatographic logP in data set [1] amounted to 3.99. In addition, the inhibition at 20 ppm in data set [2], in data set [3], in data set [4] and in data set [5] was 90 to 100% in each case. Besides, the pest or weed control at 500 ppm in data set [6] and in data set [7] was 90 to 100% in each case.

For `COc1cccc(Oc2cnc(C)nc2C2=NOC[C@@H](Cc3ccc(C)cc3C)N2)c1` (racemic) [Compound I-032], the chromatographic logP in data set [1] is 3.66. The inhibition at 20 ppm in data set [2] lay within 90 to 100%; in data set [3], 80 to 89%; in data set [4], 90 to 100%; in data set [5], 90 to 100%. Also, the pest or weed control at 500 ppm in data set [6] and in data set [7] was 90 to 100% each time.

`Cc1ccc(C[C@@H]2CON=C(c3nc(C)ncc3Oc3cccc(Cl)c3)N2)c(C)c1` (racemic) [Compound I-023] showed a chromatographic logP in data set [1] of 4.15. For the same compound, the inhibition at 20 ppm in data set [2] was 90 to 100%; in data set [3], 90 to 100%; in data set [4] it was 90 to 100%; in data set [5] it was 80 to 89%. The pest or weed control at 500 ppm in data set [6] and in data set [7] was 90 to 100% throughout.

On to `Cc1ncc(Oc2cccc(C(F)(F)F)c2)c(C2=NOCC(Cc3ccc(Br)cc3C)N2)n1` (racemic) [Compound I-021, (5RS)-5-[(4-bromo-2-methyl-phenyl)methyl]-3-[2-methyl-5-[3-(trifluoro-methyl)phenoxy]pyrimidin-4-yl]-5,6-dihydro-4H-1,2,4-oxadiazine], for which, in data set [1], the chromatographic logP came out at 4.48. Also, the inhibition at 20 ppm in data set [2], in data set [3], in data set [4] and in data set [5] was 90 to 100% each time. Moreover, the pest or weed control at 500 ppm in data set [6] and in data set [7] was 90 to 100% throughout.

For `Cc1ncc(Oc2cccc(C(F)(F)F)c2)c(C2=NOCC(Cc3ccc(C4CC4)cc3C)N2)n1` (racemic) [Compound I-029, (5RS)-5-[(4-cyclopropyl-2-methyl-phenyl)methyl]-3-[2-methyl-5-[3-(trifluoromethyl)phenoxy]pyrimidin-4-yl]-5,6-dihydro-4H-1,2,4-oxadiazine], the chromatographic logP in data set [1] was 4.7. The inhibition at 20 ppm in data set [2], in data set [3], in data set [4] and in data set [5] was 90 to 100% each time. For the same compound, the pest or weed control at 500 ppm in data set [6] and in data set [7] was 90 to 100% throughout.

In the case of `CSc1ncc(Oc2cccc(C(F)(F)F)c2)c(C2=NOC[C@@H](Cc3ccc(C)cc3C)N2)n1` (racemic) [Compound I-017], the chromatographic logP in data set [1] was 5.09. Further, the figures for the inhibition at 20 ppm in data set [2], in data set [4] and in data set [5] were 70 to 79%, 90 to 100% and 70 to 79%, respectively. Also, the pest or weed control at 500 ppm in data set [6] fell in the range of 90 to 100%; in data set [7], 80 to 89%.
